Reference: patent publication US20020137929A1, “1 - (3-heterocyclylphenyl) isothiourea, -isourea, -guanidine and -amidine herbicidal agents” (Intellectual Property Department, BASF Aktiengesellschaft, priority 1998, published 2002)

Tests used:
ABUTH (Velvetleaf) = experiment: Postemergence herbicidal evaluation; type: in vivo, Abutilon theophrasti
In short: (§1)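 Two-week-old seedlings sprayed with compound in 50/50 acetone/water plus 0.5% TWEEN 20, at about 0.0156 to 0.500 kg/ha, nozzle at 40 psi. Kept in greenhouse; rated visually 4-5 weeks after treatment on a 0-9 scale versus control, repeat tests averaged.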

[1] = system: IPOHE (Morningglory, Ivyleaf); experiment: Postemergence herbicidal evaluation; type: in vivo, Ipomoea hederacea
In short: as §1

[2] = system: TRZAWR (Wheat, Winter, cv Riband); experiment: Postemergence herbicidal evaluation; type: in vivo, Triticum aestivum
In short: as §1

[3] = system: CHEAL (Lambsquarters, Common); experiment: Preemergence herbicidal evaluation; type: in vivo, Chenopodium album; conditions: rated 4-5 weeks after treatment
In short: (§2)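 Seeds were planted in potting soil in cups, then sprayed preemergence with the test compound in aqueous acetone at about 0.0156 to 0.500 kg per hectare. Cups were kept under greenhouse conditions and visually rated 4–5 weeks after treatment on a 0–9 scale against an untreated control.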

[4] = system: IPOHE (Morningglory, Ivyleaf); experiment: Preemergence herbicidal evaluation; type: in vivo, Ipomoea hederacea; conditions: rated 4-5 weeks after treatment
In short: as §2

ECHCG (Barnyardgrass) = experiment: Preemergence herbicidal evaluation; type: in vivo, Echinochloa crus-galli; conditions: rated 4-5 weeks after treatment
In short: as §2

SETVI (Foxtail, Green) = experiment: Preemergence herbicidal evaluation; type: in vivo, Setaria viridis; conditions: rated 4-5 weeks after treatment
In short: as §2

ORYSAT (Rice, Tebonnet) = experiment: Preemergence herbicidal evaluation; type: in vivo, Oryza sativa, (L.) Tebonnet; conditions: rated 4-5 weeks after treatment
In short: as §2

[5] = system: TRZAWR (Wheat, Winter, cv Riband); experiment: Preemergence herbicidal evaluation; type: in vivo, Triticum aestivum; conditions: rated 4-5 weeks after treatment
In short: as §2

[6] = system: ECHORC (Watergrass (Calif.)); experiment: Preemergence weed control under flooded paddy conditions; type: in vivo, Echinochloa oryzoides; conditions: rated 3-4 weeks after treatment
In short: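 Seeds or propagules sown in top 0.5 cm of silt loam soil, flooded 1.5 to 3 cm above surface throughout. Compound in 50/50 v/v aqueous/acetone pipetted into flood water at about 0.0313 to 0.500 kg/ha. Visual 0-9 rating versus control after three to four weeks in greenhouse.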

[7] = system: ECHORC (Watergrass (Calif.)); experiment: Postemergence weed control under flooded paddy conditions; type: in vivo, Echinochloa oryzoides; conditions: postemergence weeds, 3-4 weeks after treatment
In short: (§3)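 With weeds 3 to 5 cm tall and rice at the 1.5 to 2.5 leaf stage, containers were flooded and water held 1.5 to 3 cm above soil. Compounds in 50/50 v/v aqueous/acetone went into the flood water at about 0.0313 to 0.500 kg/ha a.i. Effects were visually rated 0–9 against controls after three to four weeks in the greenhouse.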

CYPIR (Rice Flatsedge) = experiment: as above; type: in vivo, Cyperus iria; conditions: postemergence weeds, 3-4 weeks after treatment
In short: as §3

SMILES: CCOC(=O)CCN1C(=O)CSC1=Nc1cc(-n2c(=O)cc(C(F)(F)F)n(C)c2=O)c(Cl)cc1Cl [Compound 32, Ethyl 2-{{2,4-dichloro-5-[3,6-dihydro-3-methyl-2,6-dioxo-4-(trifluoromethyl)-1(2H)-pyrimidinyl]-phenyl}imino}-4-oxo-3-thiazolidinepropionate]
- Postemergence herbicidal rating ABUTH (ABUTH (Velvetleaf); Rate 0.0158 kg/ha): 5.0
- Postemergence herbicidal rating ABUTH (ABUTH (Velvetleaf); Rate 0.0313 kg/ha): 9.0
- Postemergence herbicidal rating ABUTH (ABUTH (Velvetleaf); Rate 0.0625 kg/ha): 9.0
- Postemergence herbicidal rating ABUTH (ABUTH (Velvetleaf); Rate 0.1250 kg/ha): 9.0
- Postemergence herbicidal rating IPOHE ([1]; Rate 0.0158 kg/ha): 9.0
- Postemergence herbicidal rating IPOHE ([1]; Rate 0.0313 kg/ha): 9.0
- Postemergence herbicidal rating IPOHE ([1]; Rate 0.0625 kg/ha): 9.0
- Postemergence herbicidal rating IPOHE ([1]; Rate 0.1250 kg/ha): 9.0
- Postemergence herbicidal rating TRZAWR ([2]; Rate 0.0158 kg/ha): 2.0
- Postemergence herbicidal rating TRZAWR ([2]; Rate 0.0313 kg/ha): 3.5
- Postemergence herbicidal rating TRZAWR ([2]; Rate 0.0625 kg/ha): 4.0
- Postemergence herbicidal rating TRZAWR ([2]; Rate 0.1250 kg/ha): 4.0
- Preemergence herbicidal rating CHEAL ([3]; rate 0.0156 kg/ha): 4.5
- Preemergence herbicidal rating CHEAL ([3]; rate 0.0313 kg/ha): 4.5
- Preemergence herbicidal rating CHEAL ([3]; rate 0.0625 kg/ha): 9.0
- Preemergence herbicidal rating CHEAL ([3]; rate 0.1250 kg/ha): 9.0
- Preemergence herbicidal rating CHEAL ([3]; rate 0.2500 kg/ha): 9.0
- Preemergence herbicidal rating CHEAL ([3]; rate 0.5000 kg/ha): 9.0
- Preemergence herbicidal rating IPOHE ([4]; rate 0.0156 kg/ha): 0.0
- Preemergence herbicidal rating IPOHE ([4]; rate 0.0313 kg/ha): 0.0
- Preemergence herbicidal rating IPOHE ([4]; rate 0.0625 kg/ha): 0.5
- Preemergence herbicidal rating IPOHE ([4]; rate 0.1250 kg/ha): 0.5
- Preemergence herbicidal rating IPOHE ([4]; rate 0.2500 kg/ha): 0.0
- Preemergence herbicidal rating IPOHE ([4]; rate 0.5000 kg/ha): 1.0
- Preemergence herbicidal rating ECHCG (ECHCG (Barnyardgrass); rate 0.0156 kg/ha): 0.0
- Preemergence herbicidal rating ECHCG (ECHCG (Barnyardgrass); rate 0.0313 kg/ha): 0.0
- Preemergence herbicidal rating ECHCG (ECHCG (Barnyardgrass); rate 0.0625 kg/ha): 0.0
- Preemergence herbicidal rating ECHCG (ECHCG (Barnyardgrass); rate 0.1250 kg/ha): 0.5
- Preemergence herbicidal rating ECHCG (ECHCG (Barnyardgrass); rate 0.2500 kg/ha): 0.0
- Preemergence herbicidal rating ECHCG (ECHCG (Barnyardgrass); rate 0.5000 kg/ha): 1.0
- Preemergence herbicidal rating SETVI (SETVI (Foxtail, Green); rate 0.0156 kg/ha): 0.0
- Preemergence herbicidal rating SETVI (SETVI (Foxtail, Green); rate 0.0313 kg/ha): 0.0
- Preemergence herbicidal rating SETVI (SETVI (Foxtail, Green); rate 0.0625 kg/ha): 0.5
- Preemergence herbicidal rating SETVI (SETVI (Foxtail, Green); rate 0.1250 kg/ha): 3.5
- Preemergence herbicidal rating SETVI (SETVI (Foxtail, Green); rate 0.2500 kg/ha): 9.0
- Preemergence herbicidal rating SETVI (SETVI (Foxtail, Green); rate 0.5000 kg/ha): 9.0
- Preemergence herbicidal rating ORYSAT (ORYSAT (Rice, Tebonnet); rate 0.0156 kg/ha): 0.0
- Preemergence herbicidal rating ORYSAT (ORYSAT (Rice, Tebonnet); rate 0.0313 kg/ha): 0.0
- Preemergence herbicidal rating ORYSAT (ORYSAT (Rice, Tebonnet); rate 0.0625 kg/ha): 0.0
- Preemergence herbicidal rating ORYSAT (ORYSAT (Rice, Tebonnet); rate 0.1250 kg/ha): 0.0
- Preemergence herbicidal rating ORYSAT (ORYSAT (Rice, Tebonnet); rate 0.2500 kg/ha): 1.5
- Preemergence herbicidal rating ORYSAT (ORYSAT (Rice, Tebonnet); rate 0.5000 kg/ha): 4.0
- Preemergence herbicidal rating TRZAWR ([5]; rate 0.0156 kg/ha): 0.0
- Preemergence herbicidal rating TRZAWR ([5]; rate 0.0313 kg/ha): 0.0
- Preemergence herbicidal rating TRZAWR ([5]; rate 0.0625 kg/ha): 0.0
- Preemergence herbicidal rating TRZAWR ([5]; rate 0.1250 kg/ha): 0.0
- Preemergence herbicidal rating TRZAWR ([5]; rate 0.2500 kg/ha): 1.0
- Preemergence herbicidal rating TRZAWR ([5]; rate 0.5000 kg/ha): 3.0
- Herbicidal rating ECHORC ([6]; 0.1250 kg/ha): 3.0
- Herbicidal rating ECHORC ([6]; 0.2500 kg/ha): 6.0
- Herbicidal rating ECHORC ([7]; rate 0.1250 kg/ha): 3.0
- Herbicidal rating ECHORC ([7]; rate 0.2500 kg/ha): 6.0
- Herbicidal rating CYPIR (CYPIR (Rice Flatsedge); rate 0.1250 kg/ha): 0.0
- Herbicidal rating CYPIR (CYPIR (Rice Flatsedge); rate 0.2500 kg/ha): 0.0
